# Test results taken from US7763292B2, “Cancer cell growth inhibition by black bean (Phaseolus vulgaris L) extracts” (Instituto Technologico y de Estudios Superiores de Monterrey, priority 2004, dated 2010).
# Assays:
# [1] = literature (Dávalos, 2004); cited from earlier work
# [2] = test system: Human hormone dependent mammary cancer cells (MCF-7); assay: MCF-7 growth inhibition bioassay of quercetin and flavonol-rich black bean extract; type: cell-based; conditions: quercetin alone
# Excerpt: Human hormone dependent mammary cancer cells (MCF-7) were used to conduct bioassays to test growth inhibitory effects of commercially available quercetin alone and in presence of other flavonols and phytochemicals found in black bean extracts described in Table 2.
# [3] = test system: MCF-7 cells; conditions: cited from earlier work
# [4] = test system: hormone dependent mammary cancer cells MCF-7; assay: MCF-7 proliferation in hormone-free serum, 13 days incubation; type: cell-based
# Experimental: Methanol extracts of raw and 5-day malted NG-Perla black beans were obtained by the methods described in Examples 2 and 8, respectively, and used to test their effects on hormone dependent mammary cancer cell proliferation (MCF-7).
# Since isoflavones found in black beans may show estrogenic activity, and MCF-7 are hormone dependent mammary cancer cells; tests were conducted in hormone-free serum to discard the possibility of enhanced proliferation instead of inhibition. […] Thus, MCF-7 cells were first cultured with purified commercial standards of genistein (Indofine Chemical Company, Hillsborough, N.J.) and genistin (Sigma-Aldrich Chem. Co., St. Louis, Mo.) as positive controls with the aim of testing their effects on proliferation of this cancer cell line.
structure (smiles),measurement,setting,value
O=C(O)/C=C/c1ccc(O)c(O)c1 [caffeic acid],antioxidant value,[1],6.63 TE
"COc1ccc(O)c(C(C)(C)C)c1 [BHA, butylated hydroxyanisole]",antioxidant value,[1],2.43 TE
O=c1c(O)c(-c2ccc(O)c(O)c2)oc2cc(O)cc(O)c12 [Quercetin],inhibitory effect on MCF-7 growth,[2],did not have any inhibitory effect
same,antioxidant value,[1],10.5 TE
same,IC50,"[3]; regular serum conditions (Rodgers, 1998), read-out: concentration needed to inhibit 50% of MCF-7 cancer cells",≥ 200 µM
O=c1c(-c2ccc(O)cc2)coc2cc(O)cc(O)c12 [genistein],IC50,"[4]; Homo sapiens, MCF7, 312 h, 13 days incubation, estimated by curve fit to FIG. 12, read-out: concentration required to lower the cell population doublings from 6 to 3 (50% inhibition)",18.5 µM
O=c1c(-c2ccc(O)cc2)coc2cc(O[C@@H]3O[C@H](CO)[C@@H](O)[C@H](O)[C@H]3O)cc(O)c12 [genistin],proliferation inhibition of MCF-7,[4]; even at concentrations higher than 20 μM,did not show proliferation inhibition
O=c1c(O)c(-c2cc(O)c(O)c(O)c2)oc2cc(O)cc(O)c12 [myricetin],inhibition of MCF-7 cells,[3]; regular serum conditions,do not inhibit
